What was measured:
MDS = settings: cited from earlier work
human AML = assay: nonclinical xenograft models of human AML; format: in vivo; settings: mice
[1] = Phase 1 trials of Hu5F9-G4 monotherapy; format: in vivo; settings: Phase 1 trial
[2] = pivotal randomized trial leading to azacitidine approval in MDS

Row | Molecule | known CR rate (MDS; azacitidine alone) | CR+PR rate, point estimate (MDS; [2]) | CR+PR rate, upper bound of the 1-sided 95% confidence interval (MDS; [2]) | leukemic disease in the peripheral blood and bone marrow (human AML) | maximum tolerated dose (MTD) [1] | tolerability [1]
1 | Nc1ncn([C@@H]2O[C@H](CO)[C@@H](O)[C@H]2O)c(=O)n1 [azacitidine] | 17.85% | 15.7% | 23.5% |  |  | 
2 | Hu5F9-G4: humanized IgG4 kappa monoclonal antibody targeting human CD47; heavy chain SEQ ID NO: 50, light chain SEQ ID NO: 51 |  |  |  | robust elimination of leukemic disease in the peripheral blood and bone marrow which results in long term remissions in a high percentage of mice treated | has not been reached | well tolerated

From patent publication US11795223B2, “Combination therapies for treating myelodysplastic syndromes and acute myeloid leukemia” (Forty Seven, Inc., priority 2019, dated 2023)
